{"source": "patent US6251903A", "about": "“Alkyl, azido, alkoxy, and fluoro-substituted and fused quinoxalinediones and the use thereof as glycine receptor antagonist” (priority 2000, dated 2001)", "key": {"mice [1]": {"system": "mice", "assay": "MES test with i.p. NMCQX or NDMQX (Example 51)", "format": "in vivo, Swiss Webster mice", "conditions": "NMCQX 1.25-7.50 mg/kg, NDMQX 5.00-15.00 mg/kg", "description": "In the MES test, mice were injected i.p. with NMCQX (1.25-7.50 mg/kg) or NDMQX (5.00-15.00 mg/kg). Control mice were injected with Tris (0.05 M) or Arginine (0.1 M), respectively. Seizures were then induced by applying a rectangular pulse, 50 mA, 60 pulses/sec, 0.8 msec pulse width, and 0.2 sec train length, at the time of the drugs' peak effect."}, "[2]": {"molecular_target": "NMDA receptor glycine sites", "assay": "electrophysiological assay, cloned rat NMDA receptors expressed in Xenopus oocytes", "format": "cell-based", "conditions": "Table II; from electrophysiology using Xenopus oocytes", "excerpt": "(§1) The binding affinities of quinoxaline-2,3-diones at NMDA receptor glycine sites also were estimated by electrophysiological assays with either cloned rat NMDA receptors expressed in Xenopus oocytes, or non-NMDA receptors expressed in oocytes by whole rat brain poly(A)^+ RNA. […] For NMDA receptors Ki values were approximated by averaging values at three subtype combinations (NR1A/NR2A, NR1A/NR2B, and NR1A/NR2C)."}, "rats": {"system": "rats", "assay": "rat model of permanent focal cerebral ischemia, continuous intravenous infusion", "format": "in vivo, male Sprague-Dawley rats", "description": "Male Sprague-Dawley rats (290-320 g) were […] and maintained under anesthesia with ±2% of halothane. […] The common carotid arteries (CCA) were isolated, and a loose silk ligature Was placed around each CCA. A vertical skin incision was made between the left orbit and the auditory canal, posterior part of zygoma removed and small opening (2.0/2.5 mm) drilled dorsorostrally to the foramen ovale under constant saline irrigation. The dura was opened with a microsurgical hook and the brain gently retracted with a fine spatula to expose the bifurcation of the internal carotid artery and the middle cerebral artery. The ipsilateral CCA was ligated and the MCA coagulated from its origin to the olfactory tract Two hours after MCA occlusion, the clip from the contralateral CCA was removed.\nNDMQX was dissolved in 0.1 M L-arginine and 5% glucose and infused as a slow 10 mg/kg i.v. bolus (immediately after MCA occlusion) followed by 7 mg/kg/h infusion for 22 hours.\nBrains were sliced into 2 mm blocks and stained with tetrazolium red (2,3,5-triphenyl tetrazolium chloride). The areas of brain damage were assessed using an image analyzer (Image-1, Universal Imaging Corporation, PA) to determine the volume of cortical and subcortical infarction by integration of areas and the distance between each level.\nFor the drug administration, the NMCQX was dissolved in 0.05 Tris and 5% glucose. It was infused as a slow 2 mg/kg i.v. bolus (immediately after MCA occlusion) followed by 1.4 mg/kg/h infusion for 22 hours."}, "mice [3]": {"system": "mice", "assay": "morphine tolerance in the formalin test (8 days chronic)", "format": "in vivo, male Swiss Webster mice", "description": "A modification of a previously described method was used (Hunskaar et al., J. Neurosci. Meth. 14:69-76 (1985)). Briefly, mice were placed in Plexiglas jars for at least 1 hr for accommodation to the experimental condition. Formalin (20 μl of 5% formaldehyde solution in saline) was injected into the dorsal surface of the right hind paw using a microsyringe (Hamilton Co., Reno, Nev.) with a 27-gauge needle. Mice were then transferred to the Plexiglas jars and immediately observed for licking or biting of the injected paw for 1 hr. The amount of time that each mouse spent licking or biting the injected paw was recorded for every 5-min period for a 1 hr observation period.\n[…] Mice were immediately, within a minute, injected with either saline or morphine (20 mg/kg, s.c.). On day 9, mice were weighed and after a 1-hr accommodation period-injected with morphine (4 mg/kg, s.c.). Thirty min later, all mice were tested in the formalin test (see above)."}, "mice [4]": {"system": "mice", "assay": "anticonvulsant activity in maximum electroshock seizure (MES) experiments in mice", "format": "in vivo, male Swiss/Webster mice", "conditions": "route not stated", "description": "The seizure stimulus parameters were: 50 mA, 60 Hz, rectangular pulse, width 0.8 msec, duration 200 msec. Tonic hind limb extension observed after application of the electrical stimulus was recorded as occurrence of seizure. The drug was applied i.v. as an aqueous Tris (Tromethamine) solution."}, "mice [5]": {"system": "mice", "assay": "formalin test for pain in Swiss Webster mice", "format": "in vivo, male Swiss Webster mice", "conditions": "for time spent licking, early phase / time spent licking, late phase (15-50 min): mean ± s.e.m.", "description": "The effects of the glycine receptor antagonists of the present invention on chronic pain can be evaluated as follows. Male Swiss/Webster mice weighing 25-35 grams are housed five to a cage with free access to food and water and are maintained on a 12 hour light cycle (light onset at 0800h). The glycine receptor antagonist is dissolved in DMSO at a concentration of 140 and 5-40 mg/mL, respectively. DMSO is used as vehicle control. All drugs=are injected intraperitoneally (1 μl/g). […] Mice are observed in a plexiglass cylinder, 25 cm in diameter and 30 cm in height. The plantar surface of one hindpaw is injected subcutaneously with 20 μl of 5% formalin. The degree of pain is determined by measuring the amount of time the animal spends licking the formalin-injected paw during the following time intervals: 0-5' (early phase); 5'-10', 10'-15' and 15'-50' (late phase). To test whether the glycine/excitatory amino acid antagonists prevent chronic pain in the test animals, vehicle (DMSO) or drugs dissolved in vehicle at doses of 1 mg/kg to 40 mg/kg are injected intraperitoneally 30 minutes prior to the formalin injection. For each dose of drug or vehicle control at least six animals are used.\nBriefly, after a 60 minute accommodation period in plexiglass jars, mice were weighed and injected intraperitoneally (i.p.) with NDMQX (1-20 mg/kg; N=6-10 mice/dose). Controls were injected with DMSO (1 mL/kg, i.p.). Thirty min later, mice were injected with formalin (20 μl of 5% solution) just under the skin of the right hind paw, transferred to the plexiglass jars, and immediately observed for licking or biting of the injected paw for 1 hr. The amount of time that each mouse spent licking the injected paw was measured at 0-5 min (early phase) and 15-50 min (late phase).\nIn the formalin test, following a 1 hr accommodation period, mice were injected i.p. with NMCQX (1.00-10.00 mg/kg, N=7-13 mice/dose) or NDMQX (0.5-20.00 mg/kg, N=8-9 mice/dose). Control mice were injected with Tris (0.5 M) or Bis-Tris (0.2 M), respectively. Mice were then injected with formalin. […] The amount of time that each mouse spent licking and/or biting the injected paw was recorded for 1 hr."}, "mice [6]": {"system": "mice", "assay": "effect of chronic NDMQX on morphine antinociception in the formalin test", "format": "in vivo, male Swiss Webster mice", "conditions": "40 mg/kg i.p., 8 days"}, "[7]": {"assay": "penetration of the blood/brain barrier, access to the central nervous system", "format": "in vivo", "conditions": "inferred from Ki and MES ED50"}, "glycine binding site": {"molecular_target": "glycine binding site (Rattus norvegicus, UniProt P35439)", "assay": "affinity for the glycine binding site / glycine/NMDA receptor (Ki; method not stated)", "excerpt": "as §1"}}, "note": "Entries after “also recorded” stand apart in the source; their conditions may differ."}
{"compound": "Cc1cc2nc(O)c(O)nc2c([N+](=O)[O-])c1C", "note": "[NDMQX, 6,7-Dimethyl-5-nitro-1,4-dihydroquinoxaline-2,3-dione]", "values": [{"measurement": "protection from electroshock seizures", "setting": "mice [1]", "value": "dose-dependently protected mice from generalized clonic-tonic seizures"}, {"measurement": "Ki", "setting": "[2]", "value": 43, "unit": "nM"}, {"measurement": "reduction in cortical infarct volume", "setting": "rats; 10 mg/kg i.v. bolus then 7 mg/kg/h for 22 hours, p<0.05", "value": 71, "unit": "%"}, {"measurement": "neuroprotection", "setting": "rats; rat focal ischemia", "value": "significant neuroprotection"}, {"measurement": "effect on morphine tolerance", "setting": "mice [3]; 2 mg/kg", "value": "no effect on morphine tolerance"}, {"measurement": "effect on morphine tolerance", "setting": "mice [3]; 20 mg/kg", "value": "attenuated"}, {"measurement": "effect on morphine tolerance", "setting": "mice [3]; 40 mg/kg", "value": "completely abolished"}, {"measurement": "morphine tolerance (words, overall)", "setting": "mice [3]; 8 days, early and late phases", "value": "Tolerance did not develop in mice treated with NDMQX followed by morphine; also recorded: blocked morphine tolerance in both phases of the formalin test"}, {"measurement": "ED50 as an anticonvulsant in the MES experiment in mice", "setting": "mice [4]", "value": "4 to 5", "unit": "mg/kg"}, {"measurement": "time spent licking, early phase", "setting": "mice [5]; 1.0 mg/kg i.p.", "value": "72.57 ± 14.2", "unit": "sec per 5 min period"}, {"measurement": "time spent licking, late phase (15-50 min)", "setting": "mice [5]; 1.0 mg/kg i.p.", "value": "37.59 ± 5.37", "unit": "sec per 5 min period"}, {"measurement": "time spent licking, early phase", "setting": "mice [5]; 2.5 mg/kg i.p.", "value": "78.50 ± 10.0", "unit": "sec per 5 min period"}, {"measurement": "time spent licking, late phase (15-50 min)", "setting": "mice [5]; 2.5 mg/kg i.p.", "value": "26.38 ± 5.43", "unit": "sec per 5 min period"}, {"measurement": "time spent licking, early phase", "setting": "mice [5]; 5 mg/kg i.p.", "value": "32.83 ± 8.28", "unit": "sec per 5 min period"}, {"measurement": "time spent licking, late phase (15-50 min)", "setting": "mice [5]; 5 mg/kg i.p.", "value": "10.24 ± 2.66", "unit": "sec per 5 min period"}, {"measurement": "time spent licking, early phase", "setting": "mice [5]; 10 mg/kg i.p.", "value": "29.17 ± 14.9", "unit": "sec per 5 min period"}, {"measurement": "time spent licking, late phase (15-50 min)", "setting": "mice [5]; 10 mg/kg i.p.", "value": "10.19 ± 2.44", "unit": "sec per 5 min period"}, {"measurement": "time spent licking, early phase", "setting": "mice [5]; 15 mg/kg i.p.", "value": "6.83 ± 1.85", "unit": "sec per 5 min period"}, {"measurement": "time spent licking, late phase (15-50 min)", "setting": "mice [5]; 15 mg/kg i.p.", "value": "3.19 ± 1.37", "unit": "sec per 5 min period"}, {"measurement": "time spent licking, early phase", "setting": "mice [5]; 20 mg/kg i.p.", "value": "4.33 ± 2.85", "unit": "sec per 5 min period"}, {"measurement": "time spent licking, late phase (15-50 min)", "setting": "mice [5]; 20 mg/kg i.p.", "value": "0.05 ± 0.05", "unit": "sec per 5 min period"}, {"measurement": "antinociceptive effect in the formalin test", "setting": "mice [5]; i.p., early and late phases", "value": "attenuated the mean time spent licking in a dose-dependent manner in both phases; also recorded: significant analgesic effect in both phases; also recorded: dose-dependent antinociceptive effect in both phases"}, {"measurement": "effect on morphine-induced antinociception", "setting": "mice [6]", "value": "did not alter the antinociceptive effect of morphine; also recorded: not due to potentiation of morphine-induced antinociception"}, {"measurement": "times better in crossing the blood brain barrier than 6,7-dichloro-5-nitro-1,4-dihydroquinoxaline-2,3-dione", "setting": "[7]", "value": "about 10 times"}, {"measurement": "Ki", "setting": "glycine binding site", "value": 43, "unit": "nM"}, {"measurement": "times less active than 6,7-dichloro-5-nitro-1,4-dihydroquinoxaline-2,3-dione at the glycine/NMDA receptor", "setting": "glycine binding site; from Ki", "value": "about 10 times"}]}
